Experimental data: ChEMBL document CHEMBL5523758, “Discovery of 2-Methyl-5-(1H-pyrazol-4-yl)pyridines and Related Heterocycles as Promising M4 mAChR Positive Allosteric Modulators for the Treatment of Neurocognitive Disorders” (J Med Chem, 2024)

Legend:
[1] = target: T1, Muscarinic acetylcholine receptor M4 (Homo sapiens) (UniProt P08173); conditions: Flp-In-CHO, filed as positive allosteric modulator, time 8.0 min
T1 sequence (whole entry): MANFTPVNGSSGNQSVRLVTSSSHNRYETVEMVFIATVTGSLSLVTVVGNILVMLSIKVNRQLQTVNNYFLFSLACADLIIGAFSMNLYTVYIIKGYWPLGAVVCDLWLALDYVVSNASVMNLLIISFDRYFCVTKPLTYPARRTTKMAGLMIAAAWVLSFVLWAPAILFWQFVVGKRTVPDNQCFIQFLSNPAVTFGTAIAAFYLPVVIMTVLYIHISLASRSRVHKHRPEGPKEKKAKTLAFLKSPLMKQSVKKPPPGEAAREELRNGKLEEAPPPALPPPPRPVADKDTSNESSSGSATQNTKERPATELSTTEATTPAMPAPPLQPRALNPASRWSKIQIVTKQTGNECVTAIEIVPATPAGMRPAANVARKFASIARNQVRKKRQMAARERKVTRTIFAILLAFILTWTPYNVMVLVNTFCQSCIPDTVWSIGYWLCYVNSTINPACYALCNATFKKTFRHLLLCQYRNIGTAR

[2] = target: T1, Muscarinic acetylcholine receptor M4 (Homo sapiens); conditions: Flp-In-CHO
Description: Positive allosteric modulation at human M4 mAChR stably expressed in Flp-In-CHO cells co-transfected with CAMYEL biosensor assessed as ACh-induced CAMYEL activation by measuring log of operational efficacy by BRET assay

[3] = target: T1, Muscarinic acetylcholine receptor M4 (Homo sapiens); conditions: Flp-In-CHO, filed as positive allosteric modulator
Description: Positive allosteric modulation at human M4 mAChR stably expressed in Flp-In-CHO cells co-transfected with CAMYEL biosensor assessed as ACh-induced CAMYEL activation by measuring log of functional co-operativity by BRET assay

[4] = target: T1, Muscarinic acetylcholine receptor M4 (Homo sapiens); conditions: Flp-In-CHO, filed as positive allosteric modulator, time 8.0 min; remark: listed apart in the source
[5] = target: T1, Muscarinic acetylcholine receptor M4 (Homo sapiens); conditions: Flp-In-CHO, filed as positive allosteric modulator, time 8.0 min; remark: listed apart in the source
[6] = target: T1, Muscarinic acetylcholine receptor M4 (Homo sapiens); conditions: Flp-In-CHO, time 5.0 min
[7] = target: T1, Muscarinic acetylcholine receptor M4 (Homo sapiens); conditions: Flp-In-CHO, filed as positive allosteric modulator, time 5.0 min
[8] = target: T1, Muscarinic acetylcholine receptor M4 (Homo sapiens); conditions: Flp-In-CHO, dose 10.0 µM, time 8.0 min
[9] = filed as positive allosteric modulator

| pKb [1] | log(activity) [2, 9] | log(activity) [3] | log(activity) [4] | log(activity) [5] | log(activity) [6, 9] | log(activity) [7] | deltapEC50 [8] | log(activity) [2] | log(activity) [6] | Compound |
| --- | --- | --- | --- | --- | --- | --- | --- | --- | --- | --- |
| 5.26 | 0.48 | 1 | 1.94 | 1.55 |  |  |  |  |  | Cc1ccc(-c2cnn(CC3CCCC3)c2)c(-c2ccc3c(c2)C(=O)N(CC#N)C3)n1 |
| 5.86 | 0.25 | 0.53 | 1.74 | 1.58 | 0.02 | 1.89 |  |  |  | Cc1ccc(-c2cnn(CC3CCCC3)c2)c(-c2ccc3c(c2)C(=O)N(C)C3)n1 |
| 4.55 | 0.28 | 1.03 | 1.93 | 1.16 |  |  |  |  |  | Cc1ccc(-c2cnn(CCCCC#N)c2)c(-c2ccc3c(c2)C(=O)N(C)C3)n1 |
| 5.65 | 0.5 | 1.07 | 2.15 | 1.72 |  |  |  |  |  | Cc1ccc(-c2cnn(CC3CCCC3)c2)c(-c2ccc3c(c2)C(=O)NC3)n1 |
| 4.71 | 0.1 | 0.74 | 1.92 | 1.3 |  |  |  |  |  | Cc1ncc(-c2cnn(CC3CCCC3)c2)c(-c2ccc3c(c2)C(=O)N(C)C3)n1 |
|  |  |  |  |  |  |  | > 0.4 |  |  | Cc1ccc(-c2cnn(CCCC(=O)O)c2)c(-c2ccc3c(c2)C(=O)N(C)C3)n1 |
| 4.79 |  | 0.44 | 1.56 | 0.85 |  |  |  | -0.47 |  | Cc1ccc(-c2cnn(CCCN)c2)c(-c2ccc3c(c2)C(=O)N(C)C3)n1 |
|  |  |  |  |  |  |  | > 0.4 |  |  | Cc1ccc(-c2cnn(CCC(N)=O)c2)c(-c2ccc3c(c2)C(=O)N(C)C3)n1 |
| 4.74 |  | 0.84 | 1.49 | 0.88 |  |  | > 0.4 | -0.64 |  | Cc1ccc(-c2cnn(CCC#N)c2)c(-c2ccc3c(c2)C(=O)N(C)C3)n1 |
| 4.73 | 0.18 | 1.04 | 1.94 | 1.05 |  |  |  |  |  | COC(=O)CCCn1cc(-c2ccc(C)nc2-c2ccc3c(c2)C(=O)N(C)C3)cn1 |
| 4.53 | 0.84 | 1.99 | 2.01 | 1.56 |  | 1.92 | > 0.4 |  | -0.28 | CN1Cc2ccc(-c3nc4ccccc4cc3-c3cnn(CC4CCCC4)c3)cc2C1=O |
|  |  |  |  |  |  |  | > 0.4 |  |  | Cc1ccc(-c2cnn(CCCCC(=O)O)c2)c(-c2ccc3c(c2)C(=O)N(C)C3)n1 |
| 4.57 |  | 1.08 | 1.46 | 0.73 |  |  | > 0.4 | -0.28 |  | COC(=O)CCn1cc(-c2ccc(C)nc2-c2ccc3c(c2)C(=O)N(C)C3)cn1 |
| 4.73 | 1.17 | 2.12 | 2.53 | 2.17 | 0.08 | 2.3 |  |  |  | Cc1cnc(-c2ccc3c(c2)C(=O)N(C)C3)c(-c2cnn(CC3CCCC3)c2)c1 |
|  |  |  |  |  |  |  | > 0.4 |  |  | COC(=O)CCCCn1cc(-c2ccc(C)nc2-c2ccc3c(c2)C(=O)N(C)C3)cn1 |
